Assay results published in PubChem BioAssay (NCI).
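Abbreviation: GI50, concentration required for 50% inhibition of growth. TGI is the concentration that stops growth completely.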

How the values were obtained:
Assay in all cases: NCI tumour cell line growth inhibition, 384-well format
RXF 393 renal = system: RXF 393 renal
MOLT-4 leukemia = system: MOLT-4 leukemia
IGROV1 ovarian = system: IGROV1 ovarian
SK-MEL-28 melanoma = system: SK-MEL-28 melanoma
DU-145 prostate = system: DU-145 prostate
HL-60(TB) leukemia = system: HL-60(TB) leukemia
MDA-MB-435 melanoma = system: MDA-MB-435 melanoma
CAKI-1 renal = system: CAKI-1 renal
SW-620 colon = system: SW-620 colon
OVCAR-4 ovarian = system: OVCAR-4 ovarian
A549 NSCLC = system: A549 NSCLC
SR leukemia = system: SR leukemia
SF-539 CNS = system: SF-539 CNS
786-0 renal = system: 786-0 renal
CCRF-CEM leukemia = system: CCRF-CEM leukemia
TK-10 renal = system: TK-10 renal
SF-295 CNS = system: SF-295 CNS
NCI-H322M lung = system: NCI-H322M lung
HOP-62 NSCLC = system: HOP-62 NSCLC
NCI-H23 lung = system: NCI-H23 lung
SN12C renal = system: SN12C renal
RPMI-8226 leukemia = system: RPMI-8226 leukemia
U251 glioblastoma = system: U251 glioblastoma
ACHN renal = system: ACHN renal
K-562 leukemia = system: K-562 leukemia
UO-31 renal = system: UO-31 renal
MDA-MB-468 breast = system: MDA-MB-468 breast
MALME-3M melanoma = system: MALME-3M melanoma
HOP-92 NSCLC = system: HOP-92 NSCLC
KM12 colon = system: KM12 colon
SF-268 CNS = system: SF-268 CNS
HCT-116 colon = system: HCT-116 colon
NCI-H226 lung = system: NCI-H226 lung
NCI-H460 NSCLC = system: NCI-H460 NSCLC
OVCAR-3 ovarian = system: OVCAR-3 ovarian
OVCAR-8 ovarian = system: OVCAR-8 ovarian
BT-549 breast = system: BT-549 breast
UACC-62 melanoma = system: UACC-62 melanoma
MCF7 breast = system: MCF7 breast
HT29 colon = system: HT29 colon
UACC-257 melanoma = system: UACC-257 melanoma
EKVX NSCLC = system: EKVX NSCLC
SNB-19 CNS = system: SNB-19 CNS
A498 renal = system: A498 renal
NCI/ADR-RES ovarian = system: NCI/ADR-RES ovarian
T-47D breast = system: T-47D breast
PC-3 prostate = system: PC-3 prostate

## C[C@@H]1CN(CC(=O)N2CC(C)(C)c3nc(CO)c(Cc4ccc(F)cc4)cc32)[C@@H](CN2CCOC[C@H]2C)CN1
RXF 393 renal
  GI50: 0.175 µM
  TGI: 6.79 µM
MOLT-4 leukemia
  GI50: 18.5 µM
  TGI: 35.6 µM
IGROV1 ovarian
  GI50: 61.4 µM
  TGI: > 100 µM
SK-MEL-28 melanoma
  GI50: 14.1 µM
  TGI: 33.3 µM
DU-145 prostate
  GI50: > 73.5 µM
  TGI: > 100 µM
HL-60(TB) leukemia
  GI50: 4.54 µM
  TGI: 18.9 µM
MDA-MB-435 melanoma
  GI50: 47 µM
  TGI: > 100 µM
CAKI-1 renal
  GI50: 27.9 µM
  TGI: 54 µM
SW-620 colon
  GI50: 53.5 µM
  TGI: 97.4 µM
OVCAR-4 ovarian
  GI50: 0.015 µM
  TGI: 0.112 µM
A549 NSCLC
  GI50: > 69.2 µM
  TGI: > 100 µM
SR leukemia
  GI50: 15.1 µM
  TGI: 28.5 µM
SF-539 CNS
  GI50: 32.4 µM
  TGI: 67.2 µM
786-0 renal
  GI50: 20.4 µM
  TGI: 42.2 µM
CCRF-CEM leukemia
  GI50: 16.1 µM
  TGI: 42.7 µM
TK-10 renal
  GI50: 27.9 µM
  TGI: 52.9 µM
SF-295 CNS
  GI50: 42 µM
  TGI: > 81.4 µM
NCI-H322M lung
  GI50: 33.5 µM
  TGI: > 73.1 µM
HOP-62 NSCLC
  GI50: 17.9 µM
  TGI: > 61.2 µM
NCI-H23 lung
  GI50: 24.8 µM
  TGI: 99.2 µM
SN12C renal
  GI50: > 79 µM
  TGI: > 100 µM
RPMI-8226 leukemia
  GI50: 23.1 µM
  TGI: 38 µM
U251 glioblastoma
  GI50: 28.1 µM
  TGI: 62.4 µM
ACHN renal
  GI50: 61.8 µM
  TGI: > 100 µM
K-562 leukemia
  GI50: 16.8 µM
  TGI: 30.9 µM
UO-31 renal
  GI50: 39.6 µM
  TGI: > 100 µM
MDA-MB-468 breast
  GI50: 0.483 µM
  TGI: 14.8 µM
MALME-3M melanoma
  GI50: 0.0411 µM
  TGI: 2.61 µM
HOP-92 NSCLC
  GI50: 14.6 µM
  TGI: 43.8 µM
KM12 colon
  GI50: 28.2 µM
  TGI: 63.8 µM
SF-268 CNS
  GI50: 38.6 µM
  TGI: > 74.7 µM
HCT-116 colon
  GI50: 35.6 µM
  TGI: > 91.2 µM
NCI-H226 lung
  GI50: 40.4 µM
  TGI: > 82.3 µM
NCI-H460 NSCLC
  GI50: 26 µM
  TGI: 56.1 µM
OVCAR-3 ovarian
  GI50: 42.5 µM
  TGI: > 83.1 µM
OVCAR-8 ovarian
  GI50: 17.7 µM
  TGI: 47.8 µM
BT-549 breast
  GI50: 0.695 µM
  TGI: 27.8 µM
UACC-62 melanoma
  GI50: 27.9 µM
  TGI: > 69 µM
MCF7 breast
  GI50: 35.2 µM
  TGI: 79.5 µM
HT29 colon
  GI50: 19.3 µM
  TGI: 36.7 µM
UACC-257 melanoma
  GI50: 16.1 µM
  TGI: 29.7 µM
EKVX NSCLC
  GI50: 29.9 µM
  TGI: > 88.8 µM
SNB-19 CNS
  GI50: 99.7 µM
  TGI: > 100 µM
A498 renal
  GI50: 21.5 µM
  TGI: 53.2 µM
NCI/ADR-RES ovarian
  GI50: > 70.9 µM
  TGI: > 100 µM
T-47D breast
  GI50: 22.4 µM
  TGI: 49 µM
PC-3 prostate
  GI50: 65.2 µM
  TGI: > 100 µM
